Test results: patent publication US10189863B2, “5,6-dihydro-4H-benzo[b]thieno-[2,3-d]azepine derivatives” (PULMOCIDE LIMITED, priority 2014, dated 2019)

System: RSV A2
Assay: Virus titre in air-liquid interface (ALI) cultured bronchial epithelial cells (plaque assay)
Type: cell-based, human respiratory syncytial virus
Details: for Effect on RSV titre (in words): early intervention
Experimental: Assessment of Virus Titre in Air-liquid Interface (ALI) Cultured Bronchial Epithelial Cells
ALI cultured human bronchial epithelial cells were sourced from Epithelix Sarl (Geneva, Switzerland) and maintained by changing the basal media every 3-4 days, whilst the apical surface was washed once weekly with PBS. On Day 0, the apical surface of each well was washed once with sterile PBS (300 μL) and the inserts were transferred to new 24-well plates containing fresh MucilAir culture medium (780 μL; EP04MM). RSV A2 (50 μL; diluted in MucilAir culture medium to give a final MOI of 0.01) was added to cells for one hr (37° C./5% CO2). For the purposes of standardizing MOI calculations, each MucilAir insert was estimated to contain 2×10^5 apical facing cells per well. Virus inoculum was removed with a pipette and inserts were washed twice with sterile PBS (300 μL).
Sampling was conducted by adding sterile PBS (300 μL) to the apical surface of each well for 5 min. The apical sample was then removed and transferred to tubes containing 50% sucrose dissolved in PBS (100 μL) before being stored at −80° C. This harvesting procedure was repeated daily beginning on day 0 and concluding on day 7.
ALI cultures were dosed apically with test compound on days 0-7 for “early intervention” protocols, or days 3-7 for “late intervention” protocols. The test compound (50 μL in 0.5% DMSO/PBS) was added to the apical surface and incubated (37° C./5% CO2) for 1 hr before being removed. Vehicle treatments (0.5% DMSO/PBS) were performed on the corresponding apical surfaces to ensure each well received the same number of manipulations. On day 5, the basal media was removed from each well and replenished with fresh MucilAir culture media as a necessary maintenance step for ALI culture cells.
Virus titre was quantified by plaque assay. HEp2 cells were grown in 24-well plates (Corning) for 48 hr prior to infection in DMEM containing 10% FBS until they attained 100% confluency. Collected samples were thawed at RT and ten-fold serial dilutions were prepared in serum-free DMEM. The growth medium from HEp2 cells was aspirated and replaced with 300 μL of serially diluted virus collections and left to infect at 37° C./5% CO2 for 4 hr. The infectious media was aspirated and replaced with Plaque Assay Overlay (500 μL; 1% methylcellulose in MEM, 2% FBS, 1% Pen Strep, 0.5 μg/mL amphotericin B), and left for 7 days at 37° C./5% CO2. Cells were fixed with ice-cold methanol for 10 min and blocked with 5% powdered milk (Marvel) in 0.05% PBS-tween (‘blocking buffer’) for 1 hr at RT. Anti-RSV F-protein antibody (2F7; Abcam: ab43812) was diluted to a 1:100 concentration in blocking buffer and added to cells for 1 hr at RT with shaking. Cells were washed using PBS and incubated with the secondary antibody (HRP conjugated goat anti-mouse secondary antibody (Dako P044701-2) diluted in 1:400 with blocking buffer) for 1 hr at RT with shaking. The secondary antibody solution was removed and cells were washed with PBS before the metal-enhanced development substrate DAB was prepared in ultra-pure water (according to manufacturer's instructions). Each well received 300 μL of development substrate (sigmaFAST D0426) until plaques were visible. Plaques were counted by eye and confirmed using light microscopy, allowing the calculation of plaque forming units per mL.

Cc1cnc(N2CC3(CCOCC3)C2)c(C(=O)Nc2ccc(C(=O)N3CCc4cc(C(=O)Nc5c(C)cccc5F)sc4-c4ccccc43)cc2)c1 [Example 5, N-(2-Fluoro-6-methylphenyl)-6-(4-(5-methyl-2-(7-oxa-2-azaspiro[3.5]nonan-2-yl)nicotinamido)benzoyl)-5,6-dihydro-4H-benzo[b]thieno[2,3-d]azepine-2-carboxamide]
Virus titre in apical wash, geometric mean ± SD (early intervention (days 0-7), 0.004 mg/mL, day 0): 0.0 ± 0.0 log PFU/mL
Virus titre in apical wash, geometric mean ± SD (early intervention (days 0-7), 0.004 mg/mL, day 1): 0.61 ± 0.86 log PFU/mL
Virus titre in apical wash, geometric mean ± SD (early intervention (days 0-7), 0.004 mg/mL, day 2): 3.1 ± 0.22 log PFU/mL
Virus titre in apical wash, geometric mean ± SD (early intervention (days 0-7), 0.004 mg/mL, day 3): 3.9 ± 0.18 log PFU/mL
Virus titre in apical wash, geometric mean ± SD (early intervention (days 0-7), 0.004 mg/mL, day 4): 4.1 ± 0.16 log PFU/mL
Virus titre in apical wash, geometric mean ± SD (early intervention (days 0-7), 0.004 mg/mL, day 5): 4.2 ± 0.12 log PFU/mL
Virus titre in apical wash, geometric mean ± SD (early intervention (days 0-7), 0.004 mg/mL, day 6): 3.2 ± 0.26 log PFU/mL
Virus titre in apical wash, geometric mean ± SD (early intervention (days 0-7), 0.004 mg/mL, day 7): 2.8 ± 0.43 log PFU/mL
Virus titre in apical wash, geometric mean ± SD (early intervention (days 0-7), 0.02 mg/mL, day 0): 0.0 ± 0.0 log PFU/mL
Virus titre in apical wash, geometric mean ± SD (early intervention (days 0-7), 0.02 mg/mL, day 1): 0.0 ± 0.0 log PFU/mL
Virus titre in apical wash, geometric mean ± SD (early intervention (days 0-7), 0.02 mg/mL, day 2): 0.0 ± 0.0 log PFU/mL
Virus titre in apical wash, geometric mean ± SD (early intervention (days 0-7), 0.02 mg/mL, day 3): 0.0 ± 0.0 log PFU/mL
Virus titre in apical wash, geometric mean ± SD (early intervention (days 0-7), 0.02 mg/mL, day 4): 1.4 ± 1.1 log PFU/mL
Virus titre in apical wash, geometric mean ± SD (early intervention (days 0-7), 0.02 mg/mL, day 5): 1.9 ± 1.4 log PFU/mL
Virus titre in apical wash, geometric mean ± SD (early intervention (days 0-7), 0.02 mg/mL, day 6): 0.0 ± 0.0 log PFU/mL
Virus titre in apical wash, geometric mean ± SD (early intervention (days 0-7), 0.02 mg/mL, day 7): 0.0 ± 0.0 log PFU/mL
Virus titre in apical wash, geometric mean ± SD (early intervention (days 0-7), 0.1 mg/mL, day 0): 0.0 ± 0.0 log PFU/mL
Virus titre in apical wash, geometric mean ± SD (early intervention (days 0-7), 0.1 mg/mL, day 1): 0.0 ± 0.0 log PFU/mL
Virus titre in apical wash, geometric mean ± SD (early intervention (days 0-7), 0.1 mg/mL, day 2): 0.0 ± 0.0 log PFU/mL
Virus titre in apical wash, geometric mean ± SD (early intervention (days 0-7), 0.1 mg/mL, day 3): 0.0 ± 0.0 log PFU/mL
Virus titre in apical wash, geometric mean ± SD (early intervention (days 0-7), 0.1 mg/mL, day 4): 0.0 ± 0.0 log PFU/mL
Virus titre in apical wash, geometric mean ± SD (early intervention (days 0-7), 0.1 mg/mL, day 5): 0.0 ± 0.0 log PFU/mL
Virus titre in apical wash, geometric mean ± SD (early intervention (days 0-7), 0.1 mg/mL, day 6): 0.0 ± 0.0 log PFU/mL
Virus titre in apical wash, geometric mean ± SD (early intervention (days 0-7), 0.1 mg/mL, day 7): 0.0 ± 0.0 log PFU/mL
Effect on RSV titre (in words) (0.1 μg/mL over 7 days): complete inhibition
Effect on RSV titre (in words) (apical well daily from day 0 to day 7): concentration dependent inhibition
Effect on virus titre (in words) (early or late stage intervention): completely inhibited virus titre
Virus titre in apical wash, geometric mean ± SD (late intervention (days 3-7), 0.02 mg/mL, day 0): 0.0 ± 0.0 log PFU/mL
Virus titre in apical wash, geometric mean ± SD (late intervention (days 3-7), 0.02 mg/mL, day 1): 1.6 ± 1.1 log PFU/mL
Virus titre in apical wash, geometric mean ± SD (late intervention (days 3-7), 0.02 mg/mL, day 2): 3.9 ± 0.15 log PFU/mL
Virus titre in apical wash, geometric mean ± SD (late intervention (days 3-7), 0.02 mg/mL, day 3): 5.2 ± 0.04 log PFU/mL
Virus titre in apical wash, geometric mean ± SD (late intervention (days 3-7), 0.02 mg/mL, day 4): 3.8 ± 0.50 log PFU/mL
Virus titre in apical wash, geometric mean ± SD (late intervention (days 3-7), 0.02 mg/mL, day 5): 3.6 ± 0.13 log PFU/mL
Virus titre in apical wash, geometric mean ± SD (late intervention (days 3-7), 0.02 mg/mL, day 6): 0.0 ± 0.0 log PFU/mL
Virus titre in apical wash, geometric mean ± SD (late intervention (days 3-7), 0.02 mg/mL, day 7): 1.3 ± 0.94 log PFU/mL
Virus titre in apical wash, geometric mean ± SD (late intervention (days 3-7), 0.1 mg/mL, day 0): 0.0 ± 0.0 log PFU/mL
Virus titre in apical wash, geometric mean ± SD (late intervention (days 3-7), 0.1 mg/mL, day 1): 2.3 ± 0.35 log PFU/mL
Virus titre in apical wash, geometric mean ± SD (late intervention (days 3-7), 0.1 mg/mL, day 2): 4.1 ± 0.14 log PFU/mL
Virus titre in apical wash, geometric mean ± SD (late intervention (days 3-7), 0.1 mg/mL, day 3): 5.0 ± 0.14 log PFU/mL
Virus titre in apical wash, geometric mean ± SD (late intervention (days 3-7), 0.1 mg/mL, day 4): 3.8 ± 0.31 log PFU/mL
Virus titre in apical wash, geometric mean ± SD (late intervention (days 3-7), 0.1 mg/mL, day 5): 1.7 ± 1.2 log PFU/mL
Virus titre in apical wash, geometric mean ± SD (late intervention (days 3-7), 0.1 mg/mL, day 6): 0.0 ± 0.0 log PFU/mL
Virus titre in apical wash, geometric mean ± SD (late intervention (days 3-7), 0.1 mg/mL, day 7): 0.0 ± 0.0 log PFU/mL
Effect on virus titre (in words) (late intervention, administered from day 3, days 6 and 7 post infection): dramatic reduction of virus titre
